From paper PMC3207250 (2011) come the findings set out here.

A word on the Ki: it is a dissociation constant, usually derived from enzyme kinetics or from competition with a known ligand. Read a low Ki as higher affinity.

The structures appear in SMILES notation.

This test has as its target Jak2 (Homo sapiens, UniProt O60674). It is filed as biochemical.

Sequence of Jak2 (O60674 whole entry): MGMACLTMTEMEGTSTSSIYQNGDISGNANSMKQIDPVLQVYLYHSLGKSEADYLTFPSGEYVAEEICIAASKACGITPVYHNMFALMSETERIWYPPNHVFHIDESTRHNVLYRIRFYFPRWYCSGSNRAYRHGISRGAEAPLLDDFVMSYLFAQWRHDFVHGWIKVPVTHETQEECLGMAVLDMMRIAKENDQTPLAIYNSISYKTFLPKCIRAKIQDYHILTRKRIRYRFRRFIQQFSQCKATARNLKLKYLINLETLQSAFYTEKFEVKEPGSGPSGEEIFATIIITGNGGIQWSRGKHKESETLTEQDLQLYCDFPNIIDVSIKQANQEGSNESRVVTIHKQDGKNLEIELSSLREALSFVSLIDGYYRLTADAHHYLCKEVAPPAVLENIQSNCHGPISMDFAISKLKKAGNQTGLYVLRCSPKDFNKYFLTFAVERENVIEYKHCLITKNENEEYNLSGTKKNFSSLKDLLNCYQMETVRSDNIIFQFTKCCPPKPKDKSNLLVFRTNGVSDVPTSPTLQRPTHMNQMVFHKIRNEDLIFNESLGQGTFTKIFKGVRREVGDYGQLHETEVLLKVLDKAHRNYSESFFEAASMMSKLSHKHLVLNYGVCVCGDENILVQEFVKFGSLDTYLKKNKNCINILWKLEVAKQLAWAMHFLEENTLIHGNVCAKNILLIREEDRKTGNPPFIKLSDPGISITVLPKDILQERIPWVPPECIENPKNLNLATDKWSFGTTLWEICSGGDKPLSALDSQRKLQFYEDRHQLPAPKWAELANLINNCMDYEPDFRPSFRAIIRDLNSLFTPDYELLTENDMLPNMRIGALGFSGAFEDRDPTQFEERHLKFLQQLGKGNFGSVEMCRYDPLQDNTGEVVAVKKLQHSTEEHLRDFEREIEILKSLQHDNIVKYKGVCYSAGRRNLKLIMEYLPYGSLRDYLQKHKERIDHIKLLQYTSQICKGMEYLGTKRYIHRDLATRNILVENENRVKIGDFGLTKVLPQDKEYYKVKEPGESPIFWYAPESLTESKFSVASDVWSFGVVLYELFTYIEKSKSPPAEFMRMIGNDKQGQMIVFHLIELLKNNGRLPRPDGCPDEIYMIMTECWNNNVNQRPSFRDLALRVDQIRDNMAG

Take `NC(=O)Nc1sc(-c2ccc(F)cc2)cc1C(N)=O` [TPCA-1, 2-[(Aminocarbonyl)amino]-5-(4-fluorophenyl)-3-thiophenecarboxamide]: the Ki is around 9 nM.
